Columns and labels:
GPR17 [1] = target: T1, GPR17 (Homo sapiens, UniProt Q13304); experiment: Calcium mobilization functional assay (GPR17 Ca2+ assay); type: cell-based; design: host or cells: Flp-In T-REx CHO; settings: CHO hGPR17 cells, inhibition of 50 nM MDL29,951, Calcium 5 dye, FLIPR; read-out: Ca2+ assay pIC50 (converted)
Protocol: (§1) Flp-In T-REx CHO cells stably expressing human GPR17 receptor (CHO hGPR17) from Evi Kostenis' lab (Bonn University, Germany) were cultured at 37° C. in a humidified atmosphere of 5% CO2. Cells were grown in DMEM with Nutrient Mixture F-12 supplemented with hygromycin B (500 μg/mL) and blasticidin (30 μg/mL). Expression from the Flp-In locus was induced by treatment with doxycycline (1 μg/mL) for 16-20 h prior assays.
GPR17 is a G-protein coupled receptor. GPR17 activation triggers Gq-type G-protein signaling resulting in endoplasmic reticulum calcium (Ca^2+) stores release in cytosol which can be measured using Calcium 5 dye, a fluorescent indicator dye of cytosolic Ca^2+ levels. All Examples were tested in GPR17 Ca^2+ assay to determine (screen) their GPR17 modulating activity.
CHO hGPR17 were defrosted and seeded at a density of 20,000 cells per well into black 384-well plates with clear bottom. Cells were incubated overnight at 37° C. in a humidified atmosphere of 5% CO2. Sixteen to twenty hours after seeding, CHO hGPR17 were loaded for 60 min with Calcium 5 dye, a cytosolic Ca^2+ indicator fluorescent dye, according to manufacturer's instructions. Fluorescent signal relative to cytosolic Ca^2+ concentration was recorded over time at room temperature in FLIPR Tetra reader. […] Then, 50 nM MDL29,951, a GPR17 agonist, was added to the cells. Inhibitory effects of varying concentrations test compounds were measured and resulting plC50s were determined. […] Analysis and curve fitting were performed in ActivityBase XE using XLfit 4-parameter logistic equation y=A+((B−A)/(1+((C/x)^D))) where A, B, C and D stand for minimum y, maximum y, IC50 and slope, respectively.
The activities of the Example compounds tested are depicted in the table in Section B2B below. The activity ranges A, B and C refer to plC50 values in the Ca^2+ assay as follows: “A”: plC50<7.5, “B”: plC50 7.5<x≤ 8.5, “C”: plC50>8.5

GPR17 [2] = target: T1, GPR17; experiment: cAMP accumulation functional assay (HTRF, Schild analysis); type: cell-based; design: host or cells: Flp-In T-REx CHO; settings: CHO hGPR17 cells, Schild analysis vs MDL29,951, 5 μM forskolin, read-out: cAMP assay pA2 (converted)
Protocol: as §1
GPR17 activation can also recruit Gi-type G-protein signaling, resulting in a decrease of intracellular cyclic adenosine monophosphate (cAMP). Intracellular cAMP changes can be measured using the HTRF cAMP dynamic assay kit from CisBio (Codolet, France). Using homogenous time-resolved fluorescence technology (HTRF), the assay is based on competition between native cAMP produced by cells and cAMP labelled with the dye d2. The tracer binding was determined by an anti-cAMP antibody labeled with cryptate.
CHO hGPR17 were detached with PBS containing EDTA and dispatched in black 384-well plates with 5,000 cells per well. Cells were first incubated for 30 minutes at room temperature in HBSS Hepes (pH 7.4) containing vehicle or varying concentrations of test GPR17 antagonist/inverse agonist compounds. […] After 60 minutes incubation at room temperature, the reaction is terminated and the cells lysed by adding the d2 detection reagent and the cryptate reagent in 10 μL lysis buffer each according to manufacturer's instructions. After 60 minutes incubation, changes in cAMP concentrations are measured according to manufacturer's instructions using an Envision plate reader with laser excitation. All incubations were performed in duplicate. Data was analyzed using GraphPad Prism software using the 4-parameter logistic equation to measure MDL29,951 pEC50s in absence and presence of GPR17 antagonist/inverse agonist test compounds. Dose ratio (DR) were plotted against antagonist concentrations and Schild analysis provided estimated affinity pA2 of GPR17 antagonist/inverse agonist test compounds.
The activities of the Example compounds tested are depicted in the table below. The activity ranges A, B and C refer to pA2 values in the cAMP assay as follows: “A”: pA2<7.5, “B”: pA2 7.5<x≤8.5, “C”: pA2>8.5.

T1 sequence (Q13304 whole entry): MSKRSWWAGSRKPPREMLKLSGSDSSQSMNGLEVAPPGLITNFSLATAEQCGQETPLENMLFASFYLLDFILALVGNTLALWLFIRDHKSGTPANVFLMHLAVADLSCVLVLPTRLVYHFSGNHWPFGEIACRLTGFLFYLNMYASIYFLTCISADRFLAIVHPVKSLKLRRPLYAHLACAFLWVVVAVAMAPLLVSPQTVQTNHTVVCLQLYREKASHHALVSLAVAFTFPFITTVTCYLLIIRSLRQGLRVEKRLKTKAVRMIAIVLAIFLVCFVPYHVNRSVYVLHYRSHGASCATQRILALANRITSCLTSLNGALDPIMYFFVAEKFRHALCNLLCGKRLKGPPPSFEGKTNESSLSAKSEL

Row | SMILES | IC50 (GPR17 [1]) [nM] | Kb (GPR17 [2]) [nM]
1 | O=S(=O)(Nc1cc(Cl)ccc1F)c1c[nH]c2cc(Cl)ccc12 [Compound I-4, 6-chloro-N-(5-chloro-2-fluorophenyl)-1H-indole-3-sulfonamide] | > 31.6 | 3.16 to 31.6
2 | O=S(=O)(Nc1ccc2nsnc2c1)c1c[nH]c2c3c(ccc12)CCC3 [Compound I-158, N-(2,1,3-benzothiadiazol-5-yl)-1,6,7,8-tetrahydrocyclopenta[g]indole-3-sulfonamide] | > 31.6 | –
3 | O=S(=O)(Nc1ccc2n[se]nc2c1)c1c[nH]c2cc(Cl)ccc12 [Compound I-161, N-(2,1,3-benzoselenadiazol-5-yl)-6-chloro-1H-indole-3-sulfonamide] | 3.16 to 31.6 | –
4 | N#Cc1ccc(NS(=O)(=O)c2c[nH]c3cc(Cl)ccc23)c2nsnc12 [Compound I-163, 6-chloro-N-(7-cyano-2,1,3-benzothiadiazol-4-yl)-1H-indole-3-sulfonamide] | > 31.6 | –
5 | N#Cc1cc(F)c(NS(=O)(=O)c2c[nH]c3cc(F)cc(F)c23)cc1F [Compound I-164, N-(4-cyano-2,5-difluorophenyl)-4,6-difluoro-1H-indole-3-sulfonamide] | > 31.6 | –
6 | N#Cc1cc(F)c(NS(=O)(=O)c2c[nH]c3cc(F)ccc23)cc1F [Compound I-165, N-(4-cyano-2,5-difluorophenyl)-6-fluoro-1H-indole-3-sulfonamide] | < 3.16 | –
7 | O=S(=O)(Nc1cccc2nsnc12)c1c[nH]c2cc(F)cc(F)c12 [Compound I-166, N-(2,1,3-benzothiadiazol-4-yl)-4,6-difluoro-1H-indole-3-sulfonamide] | > 31.6 | –
8 | N#Cc1cc(F)c(NS(=O)(=O)c2c[nH]c3c(Br)cccc23)cc1F [Compound I-167, 7-bromo-N-(4-cyano-2,5-difluorophenyl)-1H-indole-3-sulfonamide] | 3.16 to 31.6 | –
9 | N#Cc1ccc(NS(=O)(=O)c2c[nH]c3cc(F)cc(F)c23)c(F)c1 [Compound I-168, N-(4-cyano-2-fluorophenyl)-4,6-difluoro-1H-indole-3-sulfonamide] | 3.16 to 31.6 | –
10 | O=S(=O)(Nc1ccc2nsnc2c1)c1c[nH]c2cc(F)ccc12 [Compound I-169, N-(2,1,3-benzothiadiazol-5-yl)-6-fluoro-1H-indole-3-sulfonamide] | > 31.6 | –
11 | N#Cc1ccc(NS(=O)(=O)c2c[nH]c3cc(F)ccc23)cc1 [Compound I-171, N-(4-cyanophenyl)-6-fluoro-1H-indole-3-sulfonamide] | > 31.6 | –
12 | O=S(=O)(Nc1cc2nsnc2cc1F)c1c[nH]c2cc(F)ccc12 [Compound I-172, 6-fluoro-N-(6-fluoro-2,1,3-benzothiadiazol-5-yl)-1H-indole-3-sulfonamide] | 3.16 to 31.6 | –
13 | N#Cc1cc(F)c(NS(=O)(=O)c2c[nH]c3nc(Cl)ccc23)cc1F [Compound I-176, 6-chloro-N-(4-cyano-2,5-difluorophenyl)-1H-pyrrolo[2,3-b]pyridine-3-sulfonamide] | 3.16 to 31.6 | –
14 | N#CCc1ccc(NS(=O)(=O)c2c[nH]c3cc(Cl)ccc23)cc1 [Compound I-180, 6-chloro-N-[4-(cyanomethyl)phenyl]-1H-indole-3-sulfonamide] | > 31.6 | –
15 | Cc1ccc2c(S(=O)(=O)Nc3cc(F)c(C#N)cc3F)c[nH]c2c1 [Compound I-187, N-(4-cyano-2,5-difluorophenyl)-6-methyl-1H-indole-3-sulfonamide] | 3.16 to 31.6 | –
16 | N#Cc1ccc(NS(=O)(=O)c2c[nH]c3cc(C(F)(F)F)ccc23)cc1 [Compound I-190, N-(4-cyanophenyl)-6-(trifluoromethyl)-1H-indole-3-sulfonamide] | < 3.16 | –
17 | O=S(=O)(Nc1ccc2nsnc2c1)c1c[nH]c2cc(C(F)(F)F)ccc12 [Compound I-192, N-(2,1,3-benzothiadiazol-5-yl)-6-(trifluoromethyl)-1H-indole-3-sulfonamide] | < 3.16 | –

The next lines start with the values.

Row | IC50 (GPR17 [1]) [nM] | Kb (GPR17 [2]) [nM] | SMILES
18 | > 31.6 | – | COc1c(Cl)ccc2c(S(=O)(=O)Nc3cc(F)c(F)cc3F)c[nH]c12 [Compound I-196, 6-chloro-7-methoxy-N-(2,4,5-trifluorophenyl)-1H-indole-3-sulfonamide]
19 | > 31.6 | – | O=S(=O)(Nc1ccc(F)c2nonc12)c1c[nH]c2cc(Cl)ccc12 [Compound I-197, 6-chloro-N-(7-fluoro-2,1,3-benzoxadiazol-4-yl)-1H-indole-3-sulfonamide]
20 | > 31.6 | – | O=S(=O)(Nc1cccc(F)c1F)c1c[nH]c2cc(Cl)ccc12 [Compound I-205, 6-chloro-N-(2,3-difluorophenyl)-1H-indole-3-sulfonamide]
21 | > 31.6 | – | CC(C#N)c1ccc(NS(=O)(=O)c2c[nH]c3cc(Cl)ccc23)c(F)c1 (stereo not drawn) [Compound I-207, 6-chloro-N-[4-(1-cyanoethyl)-2-fluorophenyl]-1H-indole-3-sulfonamide]
22 | > 31.6 | – | Cc1cc(NS(=O)(=O)c2c[nH]c3cc(Cl)ccc23)ccc1C#N [Compound I-209, 6-chloro-N-(4-cyano-3-methylphenyl)-1H-indole-3-sulfonamide]
23 | > 31.6 | – | O=S(=O)(Nc1ccc(C(F)(F)F)cn1)c1c[nH]c2cc(Cl)ccc12 [Compound I-211, 6-chloro-N-[5-(trifluoromethyl)pyridin-2-yl]-1H-indole-3-sulfonamide]
24 | > 31.6 | – | Cc1cc(NS(=O)(=O)c2c[nH]c3cc(Cl)ccc23)c(F)cc1Cl [Compound I-214, 6-chloro-N-(4-chloro-2-fluoro-5-methylphenyl)-1H-indole-3-sulfonamide]
25 | > 31.6 | – | O=S(=O)(Nc1ccc(S(F)(F)(F)(F)F)cc1)c1c[nH]c2cc(Cl)ccc12 [Compound I-217, 6-chloro-N-[4-(pentafluoro-lambda6-sulfanyl)phenyl]-1H-indole-3-sulfonamide]
26 | > 31.6 | – | O=S(=O)(Nc1ccc(Br)cc1)c1c[nH]c2cc(Cl)ccc12 [Compound I-218, N-(4-bromophenyl)-6-chloro-1H-indole-3-sulfonamide]
27 | > 31.6 | – | N#Cc1ccc(NS(=O)(=O)c2c[nH]c3cc(OCC4CCCO4)ccc23)c(F)c1 (stereo not drawn) [Compound I-222, N-(4-cyano-2-fluorophenyl)-6-(tetrahydrofuran-2-ylmethoxy)-1H-indole-3-sulfonamide]
28 | > 31.6 | – | N#Cc1ccc(NS(=O)(=O)c2c[nH]c3cc(-c4ccncc4)ccc23)c(F)c1 [Compound I-231, N-(4-cyano-2-fluorophenyl)-6-(pyridin-4-yl)-1H-indole-3-sulfonamide]
29 | > 31.6 | – | COc1ccc(-c2ccc3c(S(=O)(=O)Nc4ccc(C#N)cc4F)c[nH]c3c2)cc1 [Compound I-232, N-(4-cyano-2-fluorophenyl)-6-(4-methoxyphenyl)-1H-indole-3-sulfonamide]
30 | > 31.6 | – | Cc1noc(C)c1-c1ccc2c(S(=O)(=O)Nc3ccc(C#N)cc3F)c[nH]c2c1 [Compound I-234, N-(4-cyano-2-fluorophenyl)-6-(3,5-dimethyl-1,2-oxazol-4-yl)-1H-indole-3-sulfonamide]
31 | < 3.16 | – | COc1nc(NS(=O)(=O)c2c[nH]c3cc(Br)ccc23)c(F)cc1CC#N [Compound I-320, 6-bromo-N-[5-(cyanomethyl)-3-fluoro-6-methoxypyridin-2-yl]-1H-indole-3-sulfonamide]
32 | < 3.16 | – | COc1nc(NS(=O)(=O)c2c[nH]c3c(Br)c(Cl)ccc23)c(F)cc1CC#N [Compound I-322, 7-bromo-6-chloro-N-[5-(cyanomethyl)-3-fluoro-6-methoxypyridin-2-yl]-1H-indole-3-sulfonamide]
